# Test results from US6254853A, “Water soluble pro-drugs of propofol” (Vyrex Corporation, priority 1998, dated 2001).
# “Also recorded” adds a separate entry of the source.
# Assays:
# [1] = test system: low density lipoprotein (LDL); test: Effect of propofol esters on copper-promoted oxidation of LDL (conjugated dienes); assay type: biochemical, human; settings: 5 μM; 100 μg/ml LDL, 5 μM copper sulfate
# From the text: (§1) The following experiment is based on the use of low density lipoprotein (LDL) as an oxidizable substrate. LDL is one of the plasma lipoproteins whose oxidation is thought to contribute to the pathogenesis of atherosclerosis. The copper-promoted, the hydrogen peroxide-/horseradish peroxidase-promoted and the myeloperoxidase-promoted oxidation of LDL are models for the free radical-induced oxidation of LDL that occurs in vivo.
# (§2) LDL was isolated from heparinized plasma of normal human donors by ultracentrifugation. Most of the experiments described in this study were performed immediately after isolation. Examples and further details of the experimental procedures may be found in N. Santanam et al. J. Clin Invest. 95(6):2594 (1995) and FEBS Leters, 414:549-551 (1997).
# (§3) The formation of conjugated dienes was measured in a spectrophotometer (model DB-3500; SLM-AMINCO, Urbana, Ill.) equipped with a 12 position sample changer. Samples and references were measured continuously for periods of up to several hours. Typically, 100 μg/ml of LDL was incubated in PBS with 1 U horseradish peroxidase (type X, 260 U/mg) in the presence of 50 μM H2 O2. For copper-mediated oxidation, 100 μg/ml LDL was incubated with 5 μM copper sulfate solution.
# [2] = test system: low density lipoprotein (LDL); test: Effect of propofol esters on hydrogen peroxide/horseradish peroxidase-promoted oxidation of LDL (conjugated dienes); assay type: biochemical, human; settings: 5 μM; 100 μg/ml LDL, 1 U horseradish peroxidase, 50 μM H2O2
# From the text: as §1, §2, §3
# spinal cord = settings: literature; cited from earlier work
# [3] = literature; cited from earlier work
# colorectal cancer tumors = settings: mice; co-administered with 5-fluorouracil or doxorubicin; Chinery et al. 1997; cited from earlier work
# [4] = in words; background knowledge; cited from earlier work
# lipid peroxidation = settings: Misacchia et al. 1991; cited from earlier work
# [5] = In vitro hydrolysis of propofol esters to propofol in water (PBS buffer pH 7.4); assay type: in vitro ADME; settings: room temperature, approximate
# Protocol: (§4) In vitro hydrolysis of propofol esters in various media
# (§5) General procedure: Propofol ester was dissolved in the test medium at room temperature, and samples were removed periodically for analysis. The samples were extracted with hexane, the extracts were evaporated to dryness, and the residues were taken up in methanol. Analysis was by HPLC using methanol solvent through an ODS column and UV detection at 260 nm.
# (§6) The approximate half-life for the hydrolysis of propofol hemisuccinate to propofol in various media were as follows: […]
# [6] = In vitro hydrolysis of propofol esters to propofol in albumin; assay type: in vitro ADME; settings: room temperature, approximate
# Protocol: as §4, §5, §6
# [7] = In vitro hydrolysis of propofol esters to propofol in human saliva; assay type: in vitro ADME; settings: room temperature, approximate
# Protocol: as §4, §5, §6
# [8] = In vitro hydrolysis of propofol esters to propofol in human plasma; assay type: in vitro ADME; settings: room temperature, approximate
# Protocol: as §4, §5, §6
# [9] = In vitro hydrolysis of propofol esters to propofol in human whole blood; assay type: in vitro ADME; settings: room temperature, approximate
# Protocol: as §4, §5, §6
# [10] = In vitro hydrolysis of propofol esters to propofol in rat whole blood; assay type: in vitro ADME; settings: room temperature, approximate
# Protocol: as §4, §5, §6
# [11] = In vivo hydrolysis of propofol hemisuccinate after gavage (blood levels of propofol; observation of the animals); set-up: species or system male Sprague-Dawley rats; settings: rat, two days following dosing
# Protocol: At a dosage of 400 mg of propofol hemisuccinate per kg body weight, the blood level of propofol at 4 hrs was about 1 μg/ml.
# [12] = test system: Human low density lipoprotein (huLDL); test: Effect of propofol esters on myeloperoxidase-mediated oxidation of LDL (conjugated dienes); assay type: biochemical; settings: concentration not given
# From the text: as §1, §2
# Human low density lipoprotein (huLDL) in the presence of myeloperoxidase undergoes oxidative modification. The oxidative damage may be measured by spectrophotometric detection of the resulting conjugated dienes (N. Santanam & S. Parthasarathy, J. Clin. Invest, 95(6):2594 (1995)).
# Water solubility = settings: in words
structure (smiles),measurement,setting,value
CC(C)c1cccc(C(C)C)c1OP(=O)(O)Oc1c(C(C)C)cccc1C(C)C [di(propofol) phosphoric acid ester],effect on copper-promoted oxidation of LDL,[1],not significantly affected
same,effect on oxidation of LDL in the presence of horseradish peroxidase/hydrogen peroxide,[2],not significantly affected
Cc1c(C)c2c(c(C)c1O)CCC(C)(CCCC(C)CCCC(C)CCCC(C)C)O2 (stereo not drawn) [Alpha-tocopherol],effect on chronic neurological recovery,spinal cord,enhance chronic neurological recovery
same,effect on post-traumatic spinal cord ischemia,spinal cord,decrease post-traumatic spinal cord ischemia
same,uptake into the central nervous system,[3],very slowly
same,growth of colorectal cancer tumors,colorectal cancer tumors,inhibited the growth
"S=C(S)N1CCCC1 [pyrrolidine dithiocarbamate (PDTC), pyrrolidine dithiocarbamate]",growth of colorectal cancer tumors,colorectal cancer tumors,inhibited the growth
"CC(C)c1cccc(C(C)C)c1O [propofol, 2,6-diisopropylphenol]",effect on copper-promoted oxidation of LDL,[1],almost totally inhibited
same,effect on oxidation of LDL in the presence of horseradish peroxidase/hydrogen peroxide,[2],almost totally inhibited
same,water solubility of propofol,[4],almost completely insoluble in water; also recorded: very low water solubility
same,inhibition of lipid peroxidation,lipid peroxidation,inhibit lipid peroxidation
"CC(C)c1cccc(C(C)C)c1OC(=O)CCC(=O)O [propofol hemisuccinate, 2,6-diisopropylphenyl hydrogen succinate]",half-life,[5],~14 days
same,half-life,[6],~6 days
same,half-life,[7],~4 days
same,half-life,[8],~3 days
same,half-life,[9],~2880 min
same,half-life,[10],~120 min
same,condition of the animals through the two day observation period,[11],remained healthy and active
same,effect on copper-promoted oxidation of LDL,[1],not significantly affected
same,effect on oxidation of LDL in the presence of horseradish peroxidase/hydrogen peroxide,[2],slightly inhibited
same,effect on oxidation of LDL in the presence of myeloperoxidase,[12],partly inhibited; also recorded: significantly inhibited
same,solubility in water,Water solubility,most soluble
CC(C)c1cccc(C(C)C)c1OP(=O)(O)O [mono(propofol) phosphate],Half-Life to Hydrolysis,[7],about four
same,effect on copper-promoted oxidation of LDL,[1],not significantly affected
same,effect on oxidation of LDL in the presence of horseradish peroxidase/hydrogen peroxide,[2],not significantly affected
same,solubility in water,Water solubility,most soluble
